From patent EP4778531A1, “MUSCLE RELAXANT ANTAGONIST FOR REVERSAL FOR BENZYLISOQUINOLINE MUSCLE RELAXANT” (priority 2023, dated 2025)

What was measured:
[1] = system: Hypersensitivity-Related Factors; test: Antibody array (Ary028 immune chip kit): hypersensitivity-related factors after repeated dosing; type: in vivo; settings: ICR mice; tail vein once daily for 5 days; Adamgammadex sodium 1 g/kg, Sugammadex sodium 1 mg/kg, Neostigmine 0.3 mg/kg; pooled plasma of 2 mice; N.D. = below minimum detection limit
Method: (§1) An antibody array is a type of protein chip characterized by miniaturization, integration, and high throughput. It can be used to detect the expression abundance of proteins related to a specific physiological or pathological process. The principle involves arranging capture antibodies on a membrane or glass slide, incubating with the sample, adding biotin-labeled antibodies against the target proteins, and finally using HRP-streptavidin or fluorescein-streptavidin to detect the chip signal. Signals are detected using chemiluminescence or HiLyte™ Fluor 555-streptavidin.
(§2) In this experiment, ICR mice were randomly divided into a blank group, Adamgammadex sodium (1 g/kg) group, Sugammadex sodium (1 mg/kg) group, and Neostigmine (0.3 mg/kg) group, with 2 mice per group. Mice in each group given the corresponding dosage of compound via the tail vein once daily for 5 consecutive days. On the last day after administration, plasma from the 2 animals per group was mixed and detected using the Ary028 immune chip kit. Specific detection steps were as follows: • (1) Sample volume determination: 200 µL serum sample per Array unit. (2) Blocking protein chip: Each membrane was blocked with 2 mL of corresponding Array Buffer, incubated on a shaker for 1 hour. (3) Sample processing: Samples were diluted with corresponding Array Buffer to a volume of 1.5 mL per membrane, the corresponding Array unit was added, and incubated overnight with the Array protein membrane at 4°C. (4) Membranes were washed three times with corresponding Wash buffer, then diluted detection antibody was added and incubated at room temperature for 1 h. (5) Membranes were washed three times with corresponding Wash buffer, streptavidin-HRP was added and incubated for 30min at room temperature with shaking. (6) Membranes were washed three times with corresponding Wash buffer, 1 mL of chemiluminescent reagent was added to each well, and developed on a chemiluminescence imager. (7) Fluorescence intensity was used to represent the relative concentration of the corresponding protein.

[2] = system: Inflammation-Related Factors; type: in vivo, ICR mice; settings: Adamgammadex sodium 1 g/kg, Sugammadex sodium 1 mg/kg, Neostigmine 0.3 mg/kg; for impact on inducing immune inflammation in mice (in words): conclusion from Tables 3 and 4; for Fluorescence Intensity M-CSF (Macrophage lysis-stimulating factor): second M-CSF line of Table 4
Method: as §1, §2

[3] = system: cisatracurium-induced guinea pig muscle relaxation model; test: Antagonism of residual muscle relaxation after cisatracurium in anesthetized guinea pigs (TOF monitoring); type: in vivo, Hartley guinea pigs; settings: for Residual Muscle Relaxation Recovery Time tTOF0-50: spontaneous recovery before administration; for Degree of tTOF50-90 shortening: vs negative control group
Method: Ninety (90) qualified Hartley guinea pigs, male, were used. Sixty (60) animals were randomly divided into 6 experimental groups based on body weight using a stratified random method: negative control group, positive control group, low-dose test group, medium-dose test group, high-dose test group, and combination group, with 10 animals per group (n=10). The remaining animals served as spares. The negative control group received 0.9% sodium chloride. The positive control group received 0.0625 mg/kg neostigmine methylsulfate (referred to as neostigmine). The low-dose test group received 10 mg/kg adamgammadex sodium. The medium-dose test group received 20 mg/kg adamgammadex sodium. The high-dose test group received 40 mg/kg adamgammadex sodium. The combination group received 10 mg/kg adamgammadex sodium and 0.03125 mg/kg neostigmine. The administration volume for all groups was 1 mL/kg.
Adaptive feeding was conducted after the quarantine period. On the day of the experiment, guinea pigs were weighed, administered atropine (0.1 mg/kg) intramuscularly, and then anesthetized with an intraperitoneal injection of anesthetic (pentobarbital sodium 10 mg/kg, urethane 1000 mg/kg). After fixation, the animals were intubated and connected to a small animal ventilator. Both external jugular veins and the right carotid artery were cannulated. The left jugular vein was used for cisatracurium infusion, the right jugular vein for injection of different test substances, and the carotid artery was connected to a multi-channel physiological signal acquisition and processing system for continuous monitoring of arterial blood pressure and heart rate. Electrode patches were subcutaneously placed behind the left femur and tibia of the guinea pig, and two stimulating electrodes of the neuromuscular monitor were fixed to the two electrode patches. The left hind paw was fixed on a custom-made platform. A sensor was fixed to the skin surface over the gastrocnemius muscle of the left hind limb, and a skin temperature probe was fixed to a flat area of skin. Continuous single-twitch stimulation was applied at 1 Hz. After the twitch height stabilized, the mode was switched to train-of-four stimulation (TOF mode, stimulus current 5 mA, frequency 2 Hz, pulse width 0.2 ms, interval between trains 15 s) for at least 5 min. Calibration was then performed using Calibration Mode 2, followed by TOF mode stimulation. After obtaining a stable stimulation response for at least 2 min, cisatracurium solution was infused intravenously using a dual-channel micro-infusion pump, and the start time of infusion was recorded. […] At this point, cisatracurium infusion was stopped. After stopping the infusion, neuromuscular function was allowed to recover spontaneously. When neuromuscular function reached moderate recovery, the test drug formulation was administered intravenously. Neuromuscular function was allowed to recover completely, and the administration time was recorded (Figure 1). Using the time of spontaneous recovery to moderate neuromuscular function (TOF50) as zero point, the times for recovery from TOF50 to TOF75, TOF75 to TOF90, and TOF50 to TOF90 were calculated for each animal (Table 1-2). Arterial blood pressure (systolic, diastolic, mean arterial pressure) and heart rate were recorded before cisatracurium infusion, at the time cisatracurium infusion was stopped, at the time of moderate neuromuscular recovery, and at the time of complete neuromuscular function recovery (Tables 3-7). Data were expressed as Mean ± SD. Statistical T-tests were performed using SPSS software to evaluate differences in blood pressure, heart rate, and residual neuromuscular blockade recovery times. P < 0.05 was considered statistically significant.

[4] = ICR mice, tail vein once daily for 5 days, pooled plasma of 2 mice, N.D. = below minimum detection limit
[5] = positive control group, 0.0625 mg/kg i.v.
[6] = high-dose test group, 40 mg/kg i.v.
[7] = low-dose test group, 10 mg/kg i.v.
[8] = medium-dose test group, 20 mg/kg i.v.

CN(C)C(=O)Oc1cccc([N+](C)(C)C)c1 [Neostigmine, neostigmine methylsulfate]
Fluorescence Intensity CCL11 (Eosinophil activation chemokine) [1]: 6286.81
Fluorescence Intensity CCL12 (Monocyte chemotactic receptor 5) [1]: 5003.37
Fluorescence Intensity GM-CSF (Granulocyte-macrophage colony-stimulating factor) [1]: 1679.67
Fluorescence Intensity IL-1α (Interleukin 1α) [1]: 1891.15
Fluorescence Intensity IL-1β (Interleukin 1β) [1]: 1087.46
Fluorescence Intensity IL-3 (Interleukin 3) [1]: 1133.66
Fluorescence Intensity IL-4 (Interleukin 4) [1]: 3939.66
Fluorescence Intensity IL-5 (Interleukin-5) [1]: 1864.09
Fluorescence Intensity IL-6 (Interleukin-6) [1]: 2321.39
Fluorescence Intensity IL-15 (Interleukin-15) [1]: 1503.8
Fluorescence Intensity TNF-α (Tumor necrosis factor) [1]: 1116.77
Fluorescence Intensity BAFF/BlyS/ TNFSF13B (B cell activation factor) [2, 4]: 12170.94
Fluorescence Intensity C-Reactive Protein/CRP (C-reactive protein) [2, 4]: 11999.12
Fluorescence Intensity CCL17/TARC (Thymus activation regulatory chemokine) [2, 4]: 3653.32
Fluorescence Intensity CCL19/MIP 3β (Macrophage inflammatory protein 3β) [2, 4]: 3385.33
Fluorescence Intensity CCL20/MIP 3α (Macrophage inflammatory protein 3α) [2, 4]: 4440.55
Fluorescence Intensity CCL21/6Ckine (Lymphocyte chemokine CCL21) [2, 4]: 17119.34
Fluorescence Intensity CCL22/MDC (Macrophage-derived chemokine) [2, 4]: 4762.19
Fluorescence Intensity CD160 (Leukocyte differentiation antigen160) [2, 4]: 4298.1
Fluorescence Intensity CX3CL1/ Gractalkine (Neural chemokine) [2, 4]: 2935.07
Fluorescence Intensity CXCL1/KC (Neutrophil chemokine) [2, 4]: 2935.82
Fluorescence Intensity CXCL9/MIG (IFN-γ-induced monocyte factor) [2, 4]: 1730.04
Fluorescence Intensity CXCL10/IP-10 (Interferon-induced protein 10) [2, 4]: 1971.99
Fluorescence Intensity CXCL11/I-TAC (Interferon-induced T cell chemokines) [2, 4]: 2397.51
Fluorescence Intensity CXCL13 (CXC family chemokine) [2, 4]: 3607.1
Fluorescence Intensity CXCL16 (CXC family chemokine) [2, 4]: 2426.598
Fluorescence Intensity Chemerin (Chemotactic factor) [2, 4]: 7955.57
Fluorescence Intensity G-CSF (Granulocyte colony-stimulating factor) [2, 4]: 1289.56
Fluorescence Intensity IL-2 (Interleukin-2) [2, 4]: 1107.85
Fluorescence Intensity IL-7 (Interleukin-7) [2, 4]: 3226.41
Fluorescence Intensity IL-10 (Interleukin-10) [2, 4]: 1601.99
Fluorescence Intensity IL-11 (Interleukin-11) [2, 4]: 2195.99
Fluorescence Intensity IL-12p40 (Interleukin IL-12p40) [2, 4]: 2936.85
Fluorescence Intensity IL-13 (Interleukin-13) [2, 4]: 1609.58
Fluorescence Intensity IL-15 (Interleukin-15) [2, 4]: 1503.8
Fluorescence Intensity IL-17A (Interleukin -17A) [2, 4]: 783.45
Fluorescence Intensity IL-22 (Interleukin-22) [2, 4]: 1253.05
Fluorescence Intensity IL-23 (Interleukin-23) [2, 4]: 1483.72
Fluorescence Intensity IL-27p28 (Interleukin-27p28) [2, 4]: 1575.98
Fluorescence Intensity IL-28 (Interleukin-28) [2, 4]: 3505.78
Fluorescence Intensity IL-33 (Interleukin-33) [2, 4]: 1897.86
Fluorescence Intensity M-CSF (Macrophage colony-stimulating factor) [2, 4]: 6478.33
Fluorescence Intensity Myeloperoxidase (Mastoperoxidase) [2, 4]: 6395.44
Fluorescence Intensity Pentraxin 3 (Pertussis toxin 3) [2, 4]: 3694.57
Fluorescence Intensity TIM-1/KIM-1/ HAVCR (Hepatitis A virus receptor-1 (inflammation/ immunity)) [2, 4]: 1197.17
impact on inducing immune inflammation in mice (in words) [2]: most severe impact
Fluorescence Intensity M-CSF (Macrophage lysis-stimulating factor) [2, 4]: 6478.33
Fluorescence Intensity Pentraxin 3/TSG-14 (Pertussis toxin 3) ([2]; second Pentraxin 3 line of Table 4, ICR mice, tail vein once daily for 5 days, pooled plasma of 2 mice, N.D. = below minimum detection limit): 3694.57
Residual Muscle Relaxation Recovery Time Ratios RtTOF50-75/0-50 [3, 5]: 0.09±0.07
Residual Muscle Relaxation Recovery Time Ratios RtTOF50-90/0-50 [3, 5]: 0.18±0.09
Residual Muscle Relaxation Recovery Time Ratios RtTOF75-90/0-50 [3, 5]: 0.09±0.07
Residual Muscle Relaxation Recovery Time tTOF50-75 [3, 5]: 101 ± 71 s
Residual Muscle Relaxation Recovery Time tTOF50-90 [3, 5]: 188 ± 86 s
Residual Muscle Relaxation Recovery Time tTOF75-90 [3, 5]: 87 ± 68 s
Residual Muscle Relaxation Recovery Time tTOF0-50 [3, 5]: 1134 ± 281 s
Degree of tTOF50-90 shortening [3, 5]: 58.7%

Adamgammadex sodium [Compound 1]
Fluorescence Intensity CCL12 (Monocyte chemotactic receptor 5) [1]: 168.83
Fluorescence Intensity IL-4 (Interleukin 4) [1]: 225.32
Fluorescence Intensity IL-6 (Interleukin-6) [1]: 89.83
Fluorescence Intensity BAFF/BlyS/ TNFSF13B (B cell activation factor) [2, 4]: 6659.29
Fluorescence Intensity C-Reactive Protein/CRP (C-reactive protein) [2, 4]: 5549.81
Fluorescence Intensity CCL21/6Ckine (Lymphocyte chemokine CCL21) [2, 4]: 8082.61
Fluorescence Intensity CCL22/MDC (Macrophage-derived chemokine) [2, 4]: 738.38
Fluorescence Intensity Chemerin (Chemotactic factor) [2, 4]: 2680.26
Fluorescence Intensity IL-7 (Interleukin-7) [2, 4]: 1850.57
Fluorescence Intensity IL-28 (Interleukin-28) [2, 4]: 244.77
Fluorescence Intensity M-CSF (Macrophage colony-stimulating factor) [2, 4]: 871.82
Fluorescence Intensity Myeloperoxidase (Mastoperoxidase) [2, 4]: 1927.54
impact on inducing immune inflammation in mice (in words) [2]: smallest impact
Fluorescence Intensity M-CSF (Macrophage lysis-stimulating factor) [2, 4]: 871.82
Residual Muscle Relaxation Recovery Time Ratios RtTOF50-75/0-50 [3, 6]: 0.10±0.11
Residual Muscle Relaxation Recovery Time Ratios RtTOF50-90/0-50 [3, 6]: 0.16±0.11
Residual Muscle Relaxation Recovery Time Ratios RtTOF75-90/0-50 [3, 6]: 0.06±0.06
Residual Muscle Relaxation Recovery Time tTOF50-75 [3, 6]: 131 ± 144 s
Residual Muscle Relaxation Recovery Time tTOF50-90 [3, 6]: 201 ± 131 s
Residual Muscle Relaxation Recovery Time tTOF75-90 [3, 6]: 71 ± 52 s
Residual Muscle Relaxation Recovery Time tTOF0-50 [3, 6]: 1413 ± 693 s
Degree of tTOF50-90 shortening [3, 6]: 55.8%
Residual Muscle Relaxation Recovery Time Ratios RtTOF50-75/0-50 [3, 7]: 0.14±0.10
Residual Muscle Relaxation Recovery Time Ratios RtTOF50-90/0-50 [3, 7]: 0.23±0.13
Residual Muscle Relaxation Recovery Time Ratios RtTOF75-90/0-50 [3, 7]: 0.09±0.05
Residual Muscle Relaxation Recovery Time tTOF50-75 [3, 7]: 143 ± 85 s
Residual Muscle Relaxation Recovery Time tTOF50-90 [3, 7]: 248 ± 139 s
Residual Muscle Relaxation Recovery Time tTOF75-90 [3, 7]: 105 ± 78 s
Residual Muscle Relaxation Recovery Time tTOF0-50 [3, 7]: 1093 ± 427 s
Degree of tTOF50-90 shortening [3, 7]: 45.5%
Residual Muscle Relaxation Recovery Time Ratios RtTOF50-75/0-50 [3, 8]: 0.12±0.05
Residual Muscle Relaxation Recovery Time Ratios RtTOF50-90/0-50 [3, 8]: 0.22±0.08
Residual Muscle Relaxation Recovery Time Ratios RtTOF75-90/0-50 [3, 8]: 0.09±0.07
Residual Muscle Relaxation Recovery Time tTOF50-75 [3, 8]: 159 ± 72 s
Residual Muscle Relaxation Recovery Time tTOF50-90 [3, 8]: 279 ± 123 s
Residual Muscle Relaxation Recovery Time tTOF75-90 [3, 8]: 120 ± 99 s
Residual Muscle Relaxation Recovery Time tTOF0-50 [3, 8]: 1349 ± 381 s
Degree of tTOF50-90 shortening [3, 8]: 38.7%
